Results reported in PMC8900824, “Interactions between 2′-fluoro-(carbamoylpyridinyl)deschloroepibatidine analogues and acetylcholine-binding protein inform on potent antagonist activity against nicotinic receptors” (Acta Crystallographica. Section D, Structural Biology, 2022).
“And” between values parts separate entries of the source, which are not always exact repeats. Identical values can stand only once. Like-named read-outs stand apart in the source and are kept apart here.

Key:
α4β2 nAChR = settings: cited from earlier work
homomeric α7 nAChR = settings: ref Ondachi et al., 2016, cited from earlier work; for agonist/antagonist effect on α7 nAChR: homomeric α7
AcAChBP [1] = target: T1, AcAChBP (Aplysia californica, UniProt Q8WSF8, A155V/A60V); experiment: Kd determination by biolayer interferometry (BLI) on immobilized AcAChBP; type: binding; settings: 25°C, values with standard errors
T1 construct: made in house; host or cells: Spodoptera frugiperda (Sf9) cells, baculovirus (Bac-to-Bac)
T1 sequence (Q8WSF8 entry or part of it A60V/A155V): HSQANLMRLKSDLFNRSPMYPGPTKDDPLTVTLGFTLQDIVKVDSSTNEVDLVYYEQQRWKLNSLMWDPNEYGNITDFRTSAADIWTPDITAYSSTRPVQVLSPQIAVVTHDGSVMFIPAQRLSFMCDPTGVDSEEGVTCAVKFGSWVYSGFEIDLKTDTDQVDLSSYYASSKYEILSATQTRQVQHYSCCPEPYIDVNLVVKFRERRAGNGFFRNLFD
Protocol: The K d values of compounds 1–6 were determined using an Octet RED system (Forté-Bio). AcAChBP (0.5 mg ml^−1 in buffer A) was immobilized on Ni^2+–NTA sensors for 600 s, followed by the removal of non-immobilized protein (600 s) and baseline stabilization (120 s). Association and dissociation measurements were obtained at 25°C for six concentrations of each compound (1.7–410 nM) diluted in buffer A plus 1% DMSO. BLI assays were conducted with a baseline measurement in buffer (60 s), an association measurement in the well containing the compound (120 s) and a dissociation measurement in buffer (120 s). Data processing and analysis were performed with Octet RED Data Analysis version 7.1 (Forté-Bio), where the background response of immobilized AcAChBP in buffer was subtracted.

recombinant α4β2 nAChR = settings: recombinant receptor, electrophysiology; ref Ondachi et al., 2016; cited from earlier work
AcAChBP [2] = target: T1, AcAChBP; settings: read-out: AcAChBP, Kd; isothermal titration calorimetry; ref Rucktooa et al., 2012; cited from earlier work
[3] = tested on: nicotine-induced antinociception; settings: in vivo; ref Ondachi et al., 2016; cited from earlier work
recombinant α3β4 nAChR = settings: recombinant receptor, electrophysiology; ref Ondachi et al., 2016; cited from earlier work
AcAChBP [4] = target: T1, AcAChBP; parameters: method as in Hansen et al., 2005; settings: read-out: AcAChBP, Kd; tryptophan fluorescence-quenching assay; ref Hansen et al., 2005; cited from earlier work
[5] = [3H]-epibatidine competition assay, values with standard errors, ref Ondachi et al., 2016

| SMILES | agonist/antagonist effect on α7 nAChR (homomeric α7 nAChR) | Kd (AcAChBP [1]) | agonist activity on α4β2 nAChR (recombinant α4β2 nAChR) | Ki (α4β2 nAChR; [5]) [nM] | other results |
| --- | --- | --- | --- | --- | --- |
| NC(=O)c1ccc(-c2cc(C3CC4CCC3N4)cnc2F)cc1 (centres unmarked) [Compound 1] | agonists | 9.8 ± 0.03 nM | mixed partial agonists |  | Ki (α4β2 nAChR): 0.12 ± 0.02 nM |
| NC(=O)c1ccc(-c2cc(C3CC4CCC3N4)cnc2F)nc1 (centres unmarked) [Compound 3] | agonists | 29 ± 0.05 nM | mixed partial agonists | 0.94 ± 0.07 |  |
| c1cnc2cc3c(cc2n1)[C@@H]1CNC[C@H]3C1 [Varenicline] |  |  |  |  | Kd (AcAChBP [2]): 342 nM |
| NC(=O)c1ccnc(-c2cc(C3CC4CCC3N4)cnc2F)c1 (centres unmarked) [Compound 2] | only an antagonist | 60 ± 0.14 nM |  | 0.28 ± 0.01 | antagonism of the antinociceptive action of nicotine [3]: a potency approaching that of varenicline; AcAChBP, Kd (AcAChBP [1]): lowest affinity |
| NC(=O)c1cncc(-c2cc(C3CC4CCC3N4)cnc2F)c1 (centres unmarked) [Compound 5] |  | ~30 nM and 30 nM |  | 0.28 ± 0.03 | subtype selectivity α4β2 over α7 (homomeric α7 nAChR): selective for α4β2 over α7 |
| NC(=O)c1ccc(-c2cc(C3CC4CCC3N4)cnc2F)cn1 (centres unmarked) [Compound 4] |  | 33 ± 0.08 nM |  | 0.07 ± 0.002 | subtype selectivity α4β2 over α7 (homomeric α7 nAChR): selective for α4β2 over α7 |
| Clc1ccc([C@H]2C[C@@H]3CC[C@H]2N3)cn1 [Epibatidine, (1R,2R,4S)-2-(6-chloro-3-pyridinyl)-7-azabicyclo[2.2.1]heptane] |  |  | full agonist |  | agonist activity on α3β4 nAChR (recombinant α3β4 nAChR): full agonist; Kd (AcAChBP [4]): 14 nM |
| CN1CCC[C@H]1c1cccnc1 [Nicotine] |  |  |  |  | Kd (AcAChBP [2]): 835 nM |
| NC(=O)c1cc(-c2cc(C3CC4CCC3N4)cnc2F)ccn1 (centres unmarked) [Compound 6] |  | 9.8 ± 0.01 nM |  | 0.67 ± 0.28 |  |
